Results: US4791215A, “Derivatives of glutamic acid and aspartic acid” (priority 1984, dated 1988)

Experiments:
[1] = tested on: activity of analgesic drugs; experiment: Hot-plate test, potentiation of analgesic drugs (Experiment 2); format: in vivo, rats
Summary of the method: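 Male rats of about 150 g, not fasted, five per group, were placed on a plate held at 55°±1° C. Licking or jumping latency was recorded before and at 10–90 min after dosing, with a 30 s cut-off. A positive response meant at least a doubling of reaction time, reported as positives/treated.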

[2] = tested on: CCK-8 induced contraction of guinea pig gall bladder; experiment: Anti-CCK activity on gall bladder strips in vitro; details: CCK-8 10 ng/ml
Summary of the method: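 CCK-8 at 10 ng/ml drove isometric contraction of guinea pig gall bladder strips held at 32 °C in oxygenated Krebs (O2/CO2 95:5). Antagonism was measured at graded compound concentrations and reported as ED50, in μg/ml, for 50% inhibition of the contraction.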

[3] = Body weight on daily oral dosing; format: in vivo, rats
Protocol: (§1) In order to check the hypothesis that the anti-CCK activity shown by most of the compounds in question may be used to advantage in the treatment of anorexia in man or as an appetite stimulant for farm animals, the following experiment was carried out:
(§2) Male rats having a weight of about 160 g, divided into groups of 10 animals, were used. […]
(§3) The drug, in the form of the sodium salt, was dissolved in water and administered in a volume of 10 ml of H2 O/kg while the control group received an equal volume of the solvent alone.
(§4) The following tables give the average values of the food consumption and the average weight of each group of animals, calculated weekly as well as the Student's t value calculated from the various treated groups and the group of control animals.

[4] = Food consumption on daily oral dosing; format: in vivo, rats
Protocol: as §1, §2, §3, §4

[5] = oxyphenylbutazone 50 + compound 3 mg/kg i.p.
[6] = oxyphenylbutazone 50 + compound 3 mg/kg i.p., 10'
[7] = oxyphenylbutazone 50 + compound 3 mg/kg i.p., 20'
[8] = oxyphenylbutazone 50 + compound 3 mg/kg i.p., 30'
[9] = oxyphenylbutazone 50 + compound 3 mg/kg i.p., 45'
[10] = oxyphenylbutazone 50 + compound 3 mg/kg i.p., 60'
[11] = oxyphenylbutazone 50 + compound 3 mg/kg i.p., 90'
[12] = oxyphenylbutazone 50 + compound 10 mg/kg i.p.
[13] = oxyphenylbutazone 50 + compound 10 mg/kg i.p., 10'
[14] = oxyphenylbutazone 50 + compound 10 mg/kg i.p., 20'
[15] = oxyphenylbutazone 50 + compound 10 mg/kg i.p., 30'
[16] = oxyphenylbutazone 50 + compound 10 mg/kg i.p., 45'
[17] = oxyphenylbutazone 50 + compound 10 mg/kg i.p., 60'
[18] = oxyphenylbutazone 50 + compound 10 mg/kg i.p., 90'
[19] = oxyphenylbutazone 50 + compound 30 mg/kg i.p.
[20] = oxyphenylbutazone 50 + compound 30 mg/kg i.p., 10'
[21] = oxyphenylbutazone 50 + compound 30 mg/kg i.p., 20'
[22] = oxyphenylbutazone 50 + compound 30 mg/kg i.p., 30'
[23] = oxyphenylbutazone 50 + compound 30 mg/kg i.p., 45'
[24] = oxyphenylbutazone 50 + compound 30 mg/kg i.p., 60'
[25] = oxyphenylbutazone 50 + compound 30 mg/kg i.p., 90'

## CCCN(CCC)C(=O)C(CCC(=O)O)NC(=O)c1ccc(C)c(C)c1 (centres unmarked) [Compound C-30]
[1]; [5]
  TOTAL positives: 11 x/30
[1]; [6]
  positive responses over number treated: 1/5
[1]; [7]
  positive responses over number treated: 1/5
[1]; [8]
  positive responses over number treated: 3/5
[1]; [9]
  positive responses over number treated: 2/5
[1]; [10]
  positive responses over number treated: 2/5
[1]; [11]
  positive responses over number treated: 2/5
[1]; [12]
  TOTAL positives: 12 x/30
[1]; [13]
  positive responses over number treated: 1/5
[1]; [14]
  positive responses over number treated: 2/5
[1]; [15]
  positive responses over number treated: 2/5
[1]; [16]
  positive responses over number treated: 3/5
[1]; [17]
  positive responses over number treated: 3/5
[1]; [18]
  positive responses over number treated: 2/5
[1]; [19]
  TOTAL positives: 20 x/30
[1]; [20]
  positive responses over number treated: 2/5
[1]; [21]
  positive responses over number treated: 3/5
[1]; [22]
  positive responses over number treated: 4/5
[1]; [23]
  positive responses over number treated: 4/5
[1]; [24]
  positive responses over number treated: 4/5
[1]; [25]
  positive responses over number treated: 3/5
[1]; propoxyphene 10 + compound 0.3 mg/kg i.p.
  TOTAL positives: 11 X/30
[1]; propoxyphene 10 + compound 0.3 mg/kg i.p., 10'
  positive responses over number treated: 2/5
[1]; propoxyphene 10 + compound 0.3 mg/kg i.p., 20'
  positive responses over number treated: 1/5
[1]; propoxyphene 10 + compound 0.3 mg/kg i.p., 30'
  positive responses over number treated: 3/5
[1]; propoxyphene 10 + compound 0.3 mg/kg i.p., 45'
  positive responses over number treated: 3/5
[1]; propoxyphene 10 + compound 0.3 mg/kg i.p., 60'
  positive responses over number treated: 2/5
[1]; propoxyphene 10 + compound 0.3 mg/kg i.p., 90'
  positive responses over number treated: 0/5
[1]; propoxyphene 10 + compound 1 mg/kg i.p.
  TOTAL positives: 19 X/30
[1]; propoxyphene 10 + compound 1 mg/kg i.p., 10'
  positive responses over number treated: 3/5
[1]; propoxyphene 10 + compound 1 mg/kg i.p., 20'
  positive responses over number treated: 4/5
[1]; propoxyphene 10 + compound 1 mg/kg i.p., 30'
  positive responses over number treated: 4/5
[1]; propoxyphene 10 + compound 1 mg/kg i.p., 45'
  positive responses over number treated: 4/5
[1]; propoxyphene 10 + compound 1 mg/kg i.p., 60'
  positive responses over number treated: 2/5
[1]; propoxyphene 10 + compound 1 mg/kg i.p., 90'
  positive responses over number treated: 2/5
[1]; propoxyphene 10 + compound 3 mg/kg i.p.
  TOTAL positives: 25 X/30
[1]; propoxyphene 10 + compound 3 mg/kg i.p., 10'
  positive responses over number treated: 3/5
[1]; propoxyphene 10 + compound 3 mg/kg i.p., 20'
  positive responses over number treated: 5/5
[1]; propoxyphene 10 + compound 3 mg/kg i.p., 30'
  positive responses over number treated: 5/5
[1]; propoxyphene 10 + compound 3 mg/kg i.p., 45'
  positive responses over number treated: 5/5
[1]; propoxyphene 10 + compound 3 mg/kg i.p., 60'
  positive responses over number treated: 4/5
[1]; propoxyphene 10 + compound 3 mg/kg i.p., 90'
  positive responses over number treated: 3/5
[2]
  ED50 (concentration antagonising 50% of contracting effect of CCK-8): 33.5 µg/mL
[3]; 3 mg/kg os, time 0
  body weight: 270.8 ± 8.3 g
[3]; 3 mg/kg os, week 1
  body weight: 310.2 ± 7.01 g
[3]; 3 mg/kg os, week 2
  body weight: 380.5 ± 6.5 g
[3]; 3 mg/kg os, week 3
  body weight: 409.7 ± 2.99 g
[3]; 3 mg/kg os, week 4
  body weight: 437.3 ± 55 g
[3]; 10 mg/kg os, time 0
  body weight: 271.4 ± 9.3 g
[3]; 10 mg/kg os, week 1
  body weight: 332.9 ± 5.7 g
[3]; 10 mg/kg os, week 2
  body weight: 383.2 ± 6.5 g
[3]; 10 mg/kg os, week 3
  body weight: 439.1 ± 4.3 g
[3]; 10 mg/kg os, week 4
  body weight: 470.5 ± 6.5 g
[3]; 30 mg/kg os, time 0
  body weight: 267.9 ± 7.7 g
[3]; 30 mg/kg os, week 1
  body weight: 315.7 ± 7.4 g
[3]; 30 mg/kg os, week 2
  body weight: 371.9 ± 7.9 g
[3]; 30 mg/kg os, week 3
  body weight: 437.1 ± 5.2 g
[3]; 30 mg/kg os, week 4
  body weight: 488.1 ± 6.4 g
[4]; 3 mg/kg os, week 1
  food consumption: 193.7 ± 3.58 g/week
[4]; 3 mg/kg os, week 2
  food consumption: 233.2 ± 4.56 g/week
[4]; 3 mg/kg os, week 3
  food consumption: 187.1 ± 8.40 g/week
[4]; 3 mg/kg os, week 4
  food consumption: 204.0 ± 3.63 g/week
[4]; 10 mg/kg os, week 1
  food consumption: 219.8 ± 5.62 g/week
[4]; 10 mg/kg os, week 2
  food consumption: 264.3 ± 5.61 g/week
[4]; 10 mg/kg os, week 3
  food consumption: 234.5 ± 5.05 g/week
[4]; 10 mg/kg os, week 4
  food consumption: 234.6 ± 3.99 g/week
[4]; 30 mg/kg os, week 1
  food consumption: 233.7 ± 5.45 g/week
[4]; 30 mg/kg os, week 2
  food consumption: 267.9 ± 4.92 g/week
[4]; 30 mg/kg os, week 3
  food consumption: 247.0 ± 5.19 g/week
[4]; 30 mg/kg os, week 4
  food consumption: 244.5 ± 4.06 g/week

## CCCCN(CCCC)C(=O)CCC(NC(=O)c1ccc(Cl)c(Cl)c1)C(=O)O [Compound D-2]
[1]; [5]
  TOTAL positives: 12 x/30
[1]; [6]
  positive responses over number treated: 2/5
[1]; [7]
  positive responses over number treated: 1/5
[1]; [8]
  positive responses over number treated: 2/5
[1]; [9]
  positive responses over number treated: 3/5
[1]; [10]
  positive responses over number treated: 3/5
[1]; [11]
  positive responses over number treated: 1/5
[1]; [12]
  TOTAL positives: 12 x/30
[1]; [13]
  positive responses over number treated: 1/5
[1]; [14]
  positive responses over number treated: 1/5
[1]; [15]
  positive responses over number treated: 3/5
[1]; [16]
  positive responses over number treated: 3/5
[1]; [17]
  positive responses over number treated: 2/5
[1]; [18]
  positive responses over number treated: 2/5
[1]; [19]
  TOTAL positives: 23 x/30
[1]; [20]
  positive responses over number treated: 3/5
[1]; [21]
  positive responses over number treated: 4/5
[1]; [22]
  positive responses over number treated: 4/5
[1]; [23]
  positive responses over number treated: 4/5
[1]; [24]
  positive responses over number treated: 4/5
[1]; [25]
  positive responses over number treated: 4/5
[2]
  ED50 (concentration antagonising 50% of contracting effect of CCK-8): > 200 µg/mL
